The record followed here is patent publication US20210355115A1, “ISOXAZOLE CARBOXAMIDE COMPOUNDS AND USES THEREOF” (Novartis AG, priority 2018, published 2021).

In the test the test system is Atoh1. Description: Atoh1 induction assay in mouse cerebellar neural precursor cells (Atoh1-GFP reporter assay). The format is cell-based. The conditions noted are these: maximum fold difference over DMSO control (=1), cerebellar NPCs from Atoh1-GFP mice, 10 doses 50 μM to 200 nM, 72 hours treatment, read-out: Fold Difference (ratio of Atoh1-GFP average intensity_FC to DMSO_Max). How it is done: Atoh1 induction assay was conducted with in vitro cultured cerebellar neural precursor cells isolated from neonatal transgenic Atoh1-GFP mice. Atoh1 expression is mainly regulated by the enhancer, and the nuclear GFP was driven by the cloned enhancer sequence at 3′ of Atoh1 which had high conservation among mammalians So Atoh1 induction could be reflected by GFP activation in cerebellar neural precursor cells (Helms et al., Development 2000; 127: 1185-1196; Lumpkin et al., Gene Expression Patterns 2003; 3: 389-395). Postnatal 3 days pups were dissected for cerebellum tissue isolation. The cerebellum tissue was cut into small pieces, and dissociated with 0.05% Trypsin for about 10 minutes at 37° C., and then filtered with a 70 uM cell strainer. The cells were cultured as neuropsheres for the first 2 days in ultra-low attachment dish/well-plate with DMEM/F12+1% N2 &2% B27 with 1% P/S, 20 ng/ml rhFGF2 and 20 ng/ml rhEGF (R&D Systems). Then the spheres were plated to the matrigel (1:30 diluted in DMEM/F12)-coated tissue culture dish for monolayer culture. After 4.5-5.5 days culture in vitro (DIV), cells were dissociated with 0.05% trypsin into single cells, and frozen after cell number calculation.
The cerebellar neural precursor cells (NPCs) were re-thawed from stock and cultured for another 2 days before used for Atoh1 induction assay. On the first day of assay, NPCs were seeded into matrigel-coated 384 well plates (Black view-plate, PE) at 2500 cells/well. After over-night culture, the NPCs were treated with representative compounds of the present disclosure with 1:2 serial dilutions for 10 doses, from 50 μM to 200 nM, with DMSO as negative control. After 72 hours treatment without medium change, the cells were fixed with 4% formalin for staining Assay plates were stained with GFP antibody (Abcam, #13970, 1:1000) to amplify endogenous GFP signal and then read by Cellomics. […] Table 1 Atoh1 activation by treatment of Compounds of the present disclosure (Atoh1-GFP reporter assay in cerebellar NPCs)

Structures are written as SMILES.

In the case of `NC(=O)C1(CO)CN(CCCCCNC(=O)c2cc(-c3ccc(F)cc3)on2)C1` [Example 10, N-(5-(3-carbamoyl-3-(hydroxymethyl)azetidin-1-yl)pentyl)-5-(4-fluorophenyl)isoxazole-3-carboxamide], the maximal fold induction was determined as 19.1.

As to `NC(=O)C1(CO)CN(CCCCCNC(=O)c2cc(-c3cccs3)on2)C1` [Example 9, N-(5-(3-carbamoyl-3-(hydroxymethyl)azetidin-1-yl)pentyl)-5-(thiophen-2-yl)isoxazole-3-carboxamide], the maximal fold induction came out at 24.4. For `CNC(=O)C1CN(CCCCCNC(=O)c2cc(-c3ccc(F)s3)on2)C1` [Example 22, 5-(5-fluorothiophen-2-yl)-N-(5-(3-(methylcarbamoyl)azetidin-1-yl)pentyl)isoxazole-3-carboxamide], the maximal fold induction was 16.8. Next, `CN1CCN(CCCCCNC(=O)c2cc(-c3cccs3)on2)CC1C(N)=O` (stereo not drawn) [Example 25, N-(5-(3-carbamoyl-4-methylpiperazin-1-yl)pentyl)-5-(thiophen-2-yl)isoxazole-3-carboxamide]: 13.1; `NC(=O)C1CCN(CCCCCNC(=O)c2cc(-c3ccc(F)cc3)on2)C1` (stereo not drawn) [Example 8, N-(5-(3-carbamoylpyrrolidin-1-yl)pentyl)-5-(4-fluorophenyl)isoxazole-3-carboxamide]: 14.6. With `NC(=O)CCN1CCN(CCCCCNC(=O)c2cc(-c3cccs3)on2)CC1` [Example 17, N-(5-(4-(3-amino-3-oxopropyl)piperazin-1-yl)pentyl)-5-(thiophen-2-yl)isoxazole-3-carboxamide] the figure was 20.4; with `N#C[C@H]1CCN(CCCCCNC(=O)c2cc(-c3ccc(F)cc3)on2)C[C@H]1O` (single isomer, unassigned) [Example 2], 11.5. With `NC(=O)[C@@H]1CCN(CCCCCNC(=O)c2cc(-c3cccs3)on2)C[C@@H]1F` [Example 28-cis, N-(5-((3R,4S)-4-carbamoyl-3-fluoropiperidin-1-yl)pentyl)-5-(thiophen-2-yl)isoxazole-3-carboxamide] the figure was 11.9; with `NS(=O)(=O)CCN1CCN(CCCCCNC(=O)c2cc(-c3cccs3)on2)CC1` [Example 19, N-(5-(4-(2-sulfamoylethyl)piperazin-1-yl)pentyl)-5-(thiophen-2-yl)isoxazole-3-carboxamide], 16.3. `N#C[C@H]1CCN(CCCCCNC(=O)c2cc(-c3cccs3)on2)C[C@@H]1O` [Example 16, N-(5-((3R,4R)-4-cyano-3-hydroxypiperidin-1-yl)pentyl)-5-(thiophen-2-yl)isoxazole-3-carboxamide]: the maximal fold induction came out at 32.3. Next, `NC(=O)[C@@H]1CCN(CCCCCNC(=O)c2cc(-c3cccs3)on2)C[C@@H]1O` (stereo in doubt) [Example 30, N-(5-(4-carbamoyl-3-hydroxypiperidin-1-yl)pentyl)-5-(thiophen-2-yl)isoxazole-3-carboxamide]: 16.1; `NC(=O)C1(O)CCN(CCCCCNC(=O)c2cc(-c3cccs3)on2)CC1` [Example 26, N-(5-(4-carbamoyl-4-hydroxypiperidin-1-yl)pentyl)-5-(thiophen-2-yl)isoxazole-3-carboxamide]: 16.3; `NS(=O)(=O)C1CCN(CCCCCNC(=O)c2cc(-c3cccs3)on2)CC1` [Example 14, N-(5-(4-sulfamoylpiperidin-1-yl)pentyl)-5-(thiophen-2-yl)isoxazole-3-carboxamide]: 23.8. In the case of `CNC(=O)COC(=O)NC1CN(CCCCCNC(=O)c2cc(-c3cccs3)on2)C1` [Example 5], the maximal fold induction stood at 17.2.

Regarding `NS(=O)(=O)C1CCN(CCCCCNC(=O)c2cc(-c3cccs3)on2)C1` (stereo not drawn) [Example 7, N-(5-(3-sulfamoylpyrrolidin-1-yl)pentyl)-5-(thiophen-2-yl)isoxazole-3-carboxamide], the maximal fold induction is 17.2. `NC(=O)[C@@H]1CCN(CCCCCNC(=O)c2cc(-c3cccs3)on2)C[C@H]1F` [Example 28-trans, N-(5-((3S,4S)-4-carbamoyl-3-fluoropiperidin-1-yl)pentyl)-5-(thiophen-2-yl)isoxazole-3-carboxamide]: the maximal fold induction came out at 16.8. Turning to `N#CCCNS(=O)(=O)C1CN(CCCCCNC(=O)c2cc(-c3cccs3)on2)C1` [Example 4, N-(5-(3-(N-(2-cyanoethyl)sulfamoyl)azetidin-1-yl)pentyl)-5-(thiophen-2-yl)isoxazole-3-carboxamide], the maximal fold induction was determined as 18.3. `CC(C#N)NC(=O)C1CN(CCCCCNC(=O)c2cc(-c3ccc(F)cc3)on2)C1` (stereo not drawn) [Example 24, N-(5-(3-((1-cyanoethyl)carbamoyl)azetidin-1-yl)pentyl)-5-(4-fluorophenyl)isoxazole-3-carboxamide]: the maximal fold induction is 18.3. With `NC(=O)C1CN(CCCCCNC(=O)c2cc(-c3cccs3)on2)CC1O` (stereo not drawn) [Example 13, N-(5-(3-carbamoyl-4-hydroxypyrrolidin-1-yl)pentyl)-5-(thiophen-2-yl)isoxazole-3-carboxamide] the figure was 32.5; with `NC(=O)C1(O)CN(CCCCCNC(=O)c2cc(-c3cccs3)on2)C1` [Example 21, N-(5-(3-carbamoyl-3-hydroxyazetidin-1-yl)pentyl)-5-(thiophen-2-yl)isoxazole-3-carboxamide], 20.8; with `CC1(C(N)=O)CN(CCCCCNC(=O)c2cc(-c3ccc(F)cc3)on2)C1` [Example 12, N-(5-(3-carbamoyl-3-methylazetidin-1-yl)pentyl)-5-(4-fluorophenyl)isoxazole-3-carboxamide], 22.4. Take `NS(=O)(=O)C1CCCN(CCCCCNC(=O)c2cc(-c3cccs3)on2)C1` (stereo not drawn) [Example 6, N-(5-(3-sulfamoylpiperidin-1-yl)pentyl)-5-(thiophen-2-yl)isoxazole-3-carboxamide]: the maximal fold induction was found to be 20.1. Consider `NC(=O)C1CN(CCCCCNC(=O)c2cc(-c3ccc(F)s3)on2)C1` [Example 23, N-(5-(3-carbamoylazetidin-1-yl)pentyl)-5-(5-fluorothiophen-2-yl)isoxazole-3-carboxamide], for which the maximal fold induction was determined as 24.3. With `O=C(NCCCCCN1CC(C(=O)N[C@H]2CCC[C@H]2O)C1)c1cc(-c2ccc(F)cc2)on1` [Example 27, 5-(4-fluorophenyl)-N-(5-(3-(((1S,2R)-2-hydroxycyclopentyl)carbamoyl)azetidin-1-yl)pentyl)isoxazole-3-carboxamide] the figure was 13.5; with `O=C(NCCCCCN1CC(C(=O)NC2COCC2O)C1)c1cc(-c2cccs2)on1` (stereo not drawn) [Example 36, N-(5-(3-((4-hydroxytetrahydrofuran-3-yl)carbamoyl)azetidin-1-yl)pentyl)-5-(thiophen-2-yl)isoxazole-3-carboxamide], 13.6; with `NC(=O)[C@@H](O)CN1CCN(CCCCCNC(=O)c2cc(-c3cccs3)on2)CC1` [37 S], 31.5. With `N#C[C@@H]1CN(CCCCCNC(=O)c2cc(-c3cccs3)on2)CC[C@@H]1C(N)=O` [Example 1, N-(5-((3S,4S)-4-carbamoyl-3-cyanopiperidin-1-yl)pentyl)-5-(thiophen-2-yl)isoxazole-3-carboxamide] the figure was 12.7; with `CC1(C(N)=O)CN(CCCCCNC(=O)c2cc(-c3cccs3)on2)C1` [Example 11, N-(5-(3-carbamoyl-3-methylazetidin-1-yl)pentyl)-5-(thiophen-2-yl)isoxazole-3-carboxamide], 33.3. Regarding `O=C(NCCCCCN1CC(S(=O)(=O)NC2COC2)C1)c1cc(-c2cccs2)on1` [Example 3, N-(5-(3-(N-(oxetan-3-yl)sulfamoyl)azetidin-1-yl)pentyl)-5-(thiophen-2-yl)isoxazole-3-carboxamide], the maximal fold induction amounted to 11.2. Take `N#C[C@H]1CCN(CCCCCNC(=O)c2cc(-c3cccs3)on2)C[C@@H]1C(N)=O` [Example 29, N-(5-((3R,4S)-3-carbamoyl-4-cyanopiperidin-1-yl)pentyl)-5-(thiophen-2-yl)isoxazole-3-carboxamide]: the maximal fold induction is 15.4. Next, `NC(=O)C1CCN(CCCCCNC(=O)c2cc(-c3cccs3)on2)CC1` [Example 20, N-(5-(4-cathamoylpiperidin-1-yl)pentyl)-5-(thiophen-2-yl)isoxazole-3-carboxamide]: 14.7. Regarding `N#C[C@@H]1CN(CCCCCNC(=O)c2cc(-c3cccs3)on2)C[C@@H]1O` [34 cis], the maximal fold induction stood at 11.2. `NS(=O)(=O)C1CCN(CCCCCNC(=O)c2cc(-c3ccc(F)cc3)on2)CC1` [Example 15, 5-(4-fluorophenyl)-N-(5-(4-sulfamoylpiperidin-1-yl)pentyl)isoxazole-3-carboxamide]: the maximal fold induction was 18.9.
